Consider six compounds from ChEMBL document CHEMBL1909046, “DrugMatrix in vitro pharmacology data”.

Assay [1] concerns the target T1, 3-hydroxy-3-methylglutaryl-coenzyme A reductase (Homo sapiens, UniProt P04035).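 Further: enzyme inhibition assay of HMG-CoA reductase using radiolabeled [14C]HMG-CoA as substrate; in other assays of this panel Not Active means under 50% inhibition at 10 µM.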
T1 sequence (P04035 whole entry): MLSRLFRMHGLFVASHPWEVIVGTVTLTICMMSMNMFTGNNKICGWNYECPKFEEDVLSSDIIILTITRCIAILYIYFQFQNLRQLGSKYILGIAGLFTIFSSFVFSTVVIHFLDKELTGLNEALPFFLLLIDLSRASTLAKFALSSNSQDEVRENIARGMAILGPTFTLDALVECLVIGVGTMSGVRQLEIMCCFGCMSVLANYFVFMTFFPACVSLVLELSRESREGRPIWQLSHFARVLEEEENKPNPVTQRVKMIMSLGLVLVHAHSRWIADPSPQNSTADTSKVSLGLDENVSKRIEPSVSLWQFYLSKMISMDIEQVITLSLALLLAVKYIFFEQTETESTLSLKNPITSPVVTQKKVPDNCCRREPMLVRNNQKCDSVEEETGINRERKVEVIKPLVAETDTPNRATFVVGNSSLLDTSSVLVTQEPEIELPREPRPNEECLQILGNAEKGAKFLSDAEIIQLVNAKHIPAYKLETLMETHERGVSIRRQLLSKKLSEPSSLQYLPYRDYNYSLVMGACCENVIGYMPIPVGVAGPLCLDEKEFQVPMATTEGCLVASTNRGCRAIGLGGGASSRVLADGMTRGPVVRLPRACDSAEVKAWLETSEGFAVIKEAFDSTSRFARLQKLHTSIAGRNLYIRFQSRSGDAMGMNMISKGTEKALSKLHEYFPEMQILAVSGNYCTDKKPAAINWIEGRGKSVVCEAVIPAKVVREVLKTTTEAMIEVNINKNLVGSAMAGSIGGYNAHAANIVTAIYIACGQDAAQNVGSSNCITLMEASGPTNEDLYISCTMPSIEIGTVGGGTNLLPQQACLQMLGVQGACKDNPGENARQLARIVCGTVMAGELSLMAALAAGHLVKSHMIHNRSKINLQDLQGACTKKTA
Also noted: species or system Escherichia coli.

Another assay has as its target T2, Adenosine receptor A1 (Homo sapiens, UniProt P30542).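 Further: radioligand binding assay at the adenosine A1 receptor, with DPCPX serving as the labelled ligand; in other assays of this panel Not Active means under 50% inhibition at 10 µM.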
T2 sequence (P30542 whole entry): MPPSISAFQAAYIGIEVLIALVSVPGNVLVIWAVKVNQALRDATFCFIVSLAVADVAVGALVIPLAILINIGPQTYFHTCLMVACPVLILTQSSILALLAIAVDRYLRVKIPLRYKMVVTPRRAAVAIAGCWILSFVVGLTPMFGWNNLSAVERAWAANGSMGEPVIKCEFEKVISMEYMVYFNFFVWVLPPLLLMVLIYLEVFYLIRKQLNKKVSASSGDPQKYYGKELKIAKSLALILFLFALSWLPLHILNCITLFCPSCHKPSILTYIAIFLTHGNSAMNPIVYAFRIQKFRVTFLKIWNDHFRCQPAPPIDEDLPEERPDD
The format is cell membranes, CHO, Membrane. As to conditions: cho.

Assay [2] concerns the target T3, Cholecystokinin receptor type A (Homo sapiens, UniProt P32238). Further: in other assays of this panel Not Active means under 50% inhibition at 10 µM.
T3 sequence (P32238 whole entry): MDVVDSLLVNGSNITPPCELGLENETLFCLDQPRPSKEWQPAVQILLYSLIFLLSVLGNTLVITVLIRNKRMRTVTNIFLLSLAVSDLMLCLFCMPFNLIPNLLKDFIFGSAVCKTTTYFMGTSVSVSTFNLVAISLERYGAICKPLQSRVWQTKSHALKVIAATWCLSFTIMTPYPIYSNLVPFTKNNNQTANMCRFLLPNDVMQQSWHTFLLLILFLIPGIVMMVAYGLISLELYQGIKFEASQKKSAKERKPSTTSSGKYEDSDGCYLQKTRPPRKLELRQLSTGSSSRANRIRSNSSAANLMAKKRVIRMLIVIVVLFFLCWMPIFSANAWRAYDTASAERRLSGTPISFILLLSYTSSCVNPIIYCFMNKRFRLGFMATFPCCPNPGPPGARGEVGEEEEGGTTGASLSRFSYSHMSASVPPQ
The assay is classed as cell membranes, Membrane. As to conditions: 1321-n1.

For assay [3], the target named is Receptor tyrosine-protein kinase erbB-2 (Homo sapiens, UniProt P04626). Kind of assay: biochemical. As to conditions: for pIC50: read-out: IC50. The assay is classed as cell-based, Insect cells.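 On all read-outs here: inhibition of HER2 kinase enzyme activity, measured with Poly(Glu:Tyr) as the phosphorylation substrate; in other assays of this panel Not Active means under 50% inhibition at 10 µM.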
Assay [4] deals with Tyrosine-protein kinase Fyn (Homo sapiens, UniProt P06241). The experiment in a line: biochemical. The following applies: for pIC50: read-out: IC50. The assay is classed as cell-based, Insect cells.
Assay [5] deals with 5-hydroxytryptamine receptor 4 (Cavia porcellus, UniProt O70528). The format is cell membranes, Dunkin-Hartley, Striatum, Membrane.
For assay [6], the target named is T4, Amine oxidase [flavin-containing] A (Homo sapiens, UniProt P21397).
T4 sequence (P21397 whole entry): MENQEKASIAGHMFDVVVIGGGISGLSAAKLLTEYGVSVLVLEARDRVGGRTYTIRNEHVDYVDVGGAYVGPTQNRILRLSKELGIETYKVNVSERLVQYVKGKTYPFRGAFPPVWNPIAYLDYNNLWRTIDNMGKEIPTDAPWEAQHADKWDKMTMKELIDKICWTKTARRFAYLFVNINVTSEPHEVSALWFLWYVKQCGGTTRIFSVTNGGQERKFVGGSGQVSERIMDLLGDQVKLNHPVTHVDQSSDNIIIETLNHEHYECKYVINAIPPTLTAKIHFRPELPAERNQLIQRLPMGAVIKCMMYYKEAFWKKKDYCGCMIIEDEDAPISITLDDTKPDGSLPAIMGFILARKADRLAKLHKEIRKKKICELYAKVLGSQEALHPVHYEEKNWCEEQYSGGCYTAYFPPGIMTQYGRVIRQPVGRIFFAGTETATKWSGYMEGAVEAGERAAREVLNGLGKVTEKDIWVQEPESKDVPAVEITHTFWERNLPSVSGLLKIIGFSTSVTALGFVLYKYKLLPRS
Kind of assay: DRUGMATRIX: Monoamine Oxidase MAO-A enzyme inhibition (substrate: Kynuramine). On the set-up: species or system BTI-TN-5B1-4. The following applies: bti-tn-5b1-4; Not Active = under 50% inhibition at 10 µM.

Assay [7] has as its target Matrix metalloproteinase-9 (Homo sapiens, UniProt P14780). The format is cell-based.
For assay [8], the target named is Delta-type opioid receptor (Homo sapiens, UniProt P41143). The assay is classed as cell membranes, HEK293, Membrane. Further: in other assays of this panel Not Active means under 50% inhibition at 10 µM.
Assay [9] concerns the target 5-hydroxytryptamine receptor 6 (Homo sapiens, UniProt P50406). The format is cell membranes, HeLa, Membrane. Further: in other assays of this panel Not Active means under 50% inhibition at 10 µM.
Assay [10] in a line: DRUGMATRIX: beta-Lactamase enzyme inhibition (substrate: Nitrocefin). Also noted: species or system Bacillus cereus. The following applies: Not Active = under 50% inhibition at 10 µM.

pIC50, pKi: −log10 of the molar value.

Chain of Delta-type opioid receptor (P41143 whole entry): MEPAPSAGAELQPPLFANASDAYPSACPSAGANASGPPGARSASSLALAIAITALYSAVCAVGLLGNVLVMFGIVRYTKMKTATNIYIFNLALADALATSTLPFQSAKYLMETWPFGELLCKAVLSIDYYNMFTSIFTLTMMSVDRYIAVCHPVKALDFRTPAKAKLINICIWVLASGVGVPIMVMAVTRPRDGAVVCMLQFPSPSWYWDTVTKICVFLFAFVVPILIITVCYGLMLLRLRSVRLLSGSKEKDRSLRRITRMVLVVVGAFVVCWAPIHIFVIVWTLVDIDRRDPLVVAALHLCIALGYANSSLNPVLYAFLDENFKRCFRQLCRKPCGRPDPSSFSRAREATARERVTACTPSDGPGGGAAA
Chain of Matrix metalloproteinase-9 (P14780 whole entry): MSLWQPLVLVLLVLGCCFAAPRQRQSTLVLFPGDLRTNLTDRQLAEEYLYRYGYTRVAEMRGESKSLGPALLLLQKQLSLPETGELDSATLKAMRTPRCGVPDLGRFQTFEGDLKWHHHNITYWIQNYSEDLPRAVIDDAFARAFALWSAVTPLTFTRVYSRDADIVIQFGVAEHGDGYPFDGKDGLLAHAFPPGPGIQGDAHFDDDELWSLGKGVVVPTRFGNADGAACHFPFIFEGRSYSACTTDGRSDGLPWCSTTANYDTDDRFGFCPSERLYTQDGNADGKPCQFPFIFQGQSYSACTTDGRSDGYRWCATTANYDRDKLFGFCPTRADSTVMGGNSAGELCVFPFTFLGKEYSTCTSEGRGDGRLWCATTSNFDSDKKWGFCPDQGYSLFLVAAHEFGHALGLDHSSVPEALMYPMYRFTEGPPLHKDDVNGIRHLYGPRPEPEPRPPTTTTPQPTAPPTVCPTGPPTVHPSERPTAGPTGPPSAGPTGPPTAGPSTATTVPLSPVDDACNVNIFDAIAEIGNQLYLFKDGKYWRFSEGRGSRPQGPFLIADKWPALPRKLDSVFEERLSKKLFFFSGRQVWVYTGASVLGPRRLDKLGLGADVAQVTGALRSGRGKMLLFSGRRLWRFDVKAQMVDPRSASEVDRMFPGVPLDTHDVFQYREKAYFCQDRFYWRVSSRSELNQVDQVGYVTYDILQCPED
Chain of 5-hydroxytryptamine receptor 6 (P50406 whole entry): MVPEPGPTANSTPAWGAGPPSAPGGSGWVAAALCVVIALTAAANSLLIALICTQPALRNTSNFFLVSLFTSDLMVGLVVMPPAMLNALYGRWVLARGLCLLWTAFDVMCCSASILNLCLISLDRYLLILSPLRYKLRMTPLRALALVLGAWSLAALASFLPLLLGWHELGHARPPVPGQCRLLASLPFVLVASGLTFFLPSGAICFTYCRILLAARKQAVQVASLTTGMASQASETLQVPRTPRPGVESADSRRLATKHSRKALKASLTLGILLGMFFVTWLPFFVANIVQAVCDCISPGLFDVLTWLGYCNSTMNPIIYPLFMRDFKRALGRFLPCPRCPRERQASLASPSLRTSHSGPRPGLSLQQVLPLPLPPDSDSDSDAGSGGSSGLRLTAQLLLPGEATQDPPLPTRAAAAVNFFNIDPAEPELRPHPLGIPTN
Chain of 5-hydroxytryptamine receptor 4 (O70528 whole entry): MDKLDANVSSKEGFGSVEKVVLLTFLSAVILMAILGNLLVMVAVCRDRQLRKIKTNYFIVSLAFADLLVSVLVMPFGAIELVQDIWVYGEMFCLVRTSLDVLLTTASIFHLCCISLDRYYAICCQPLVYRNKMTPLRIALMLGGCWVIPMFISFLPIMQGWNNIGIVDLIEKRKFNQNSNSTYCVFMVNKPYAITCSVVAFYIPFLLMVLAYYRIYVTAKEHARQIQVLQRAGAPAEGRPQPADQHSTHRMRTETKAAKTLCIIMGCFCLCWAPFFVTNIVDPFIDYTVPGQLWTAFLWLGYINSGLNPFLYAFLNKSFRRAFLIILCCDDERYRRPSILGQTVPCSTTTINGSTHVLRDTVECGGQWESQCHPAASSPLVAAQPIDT
Chain of Tyrosine-protein kinase Fyn (P06241 whole entry): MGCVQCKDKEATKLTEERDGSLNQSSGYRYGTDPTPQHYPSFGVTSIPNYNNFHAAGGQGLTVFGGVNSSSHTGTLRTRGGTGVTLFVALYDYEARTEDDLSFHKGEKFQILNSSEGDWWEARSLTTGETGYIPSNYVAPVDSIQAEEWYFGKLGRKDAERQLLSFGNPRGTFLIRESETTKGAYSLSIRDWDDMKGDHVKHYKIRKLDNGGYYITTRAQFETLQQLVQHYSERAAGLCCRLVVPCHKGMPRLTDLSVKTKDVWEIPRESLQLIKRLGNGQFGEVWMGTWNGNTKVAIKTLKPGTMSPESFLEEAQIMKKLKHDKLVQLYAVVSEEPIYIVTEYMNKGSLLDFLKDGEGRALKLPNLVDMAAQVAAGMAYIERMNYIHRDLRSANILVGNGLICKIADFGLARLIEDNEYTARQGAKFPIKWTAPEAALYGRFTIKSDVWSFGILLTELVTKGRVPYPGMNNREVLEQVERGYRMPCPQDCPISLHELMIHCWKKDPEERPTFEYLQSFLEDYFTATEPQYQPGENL
Chain of Receptor tyrosine-protein kinase erbB-2 (P04626 whole entry): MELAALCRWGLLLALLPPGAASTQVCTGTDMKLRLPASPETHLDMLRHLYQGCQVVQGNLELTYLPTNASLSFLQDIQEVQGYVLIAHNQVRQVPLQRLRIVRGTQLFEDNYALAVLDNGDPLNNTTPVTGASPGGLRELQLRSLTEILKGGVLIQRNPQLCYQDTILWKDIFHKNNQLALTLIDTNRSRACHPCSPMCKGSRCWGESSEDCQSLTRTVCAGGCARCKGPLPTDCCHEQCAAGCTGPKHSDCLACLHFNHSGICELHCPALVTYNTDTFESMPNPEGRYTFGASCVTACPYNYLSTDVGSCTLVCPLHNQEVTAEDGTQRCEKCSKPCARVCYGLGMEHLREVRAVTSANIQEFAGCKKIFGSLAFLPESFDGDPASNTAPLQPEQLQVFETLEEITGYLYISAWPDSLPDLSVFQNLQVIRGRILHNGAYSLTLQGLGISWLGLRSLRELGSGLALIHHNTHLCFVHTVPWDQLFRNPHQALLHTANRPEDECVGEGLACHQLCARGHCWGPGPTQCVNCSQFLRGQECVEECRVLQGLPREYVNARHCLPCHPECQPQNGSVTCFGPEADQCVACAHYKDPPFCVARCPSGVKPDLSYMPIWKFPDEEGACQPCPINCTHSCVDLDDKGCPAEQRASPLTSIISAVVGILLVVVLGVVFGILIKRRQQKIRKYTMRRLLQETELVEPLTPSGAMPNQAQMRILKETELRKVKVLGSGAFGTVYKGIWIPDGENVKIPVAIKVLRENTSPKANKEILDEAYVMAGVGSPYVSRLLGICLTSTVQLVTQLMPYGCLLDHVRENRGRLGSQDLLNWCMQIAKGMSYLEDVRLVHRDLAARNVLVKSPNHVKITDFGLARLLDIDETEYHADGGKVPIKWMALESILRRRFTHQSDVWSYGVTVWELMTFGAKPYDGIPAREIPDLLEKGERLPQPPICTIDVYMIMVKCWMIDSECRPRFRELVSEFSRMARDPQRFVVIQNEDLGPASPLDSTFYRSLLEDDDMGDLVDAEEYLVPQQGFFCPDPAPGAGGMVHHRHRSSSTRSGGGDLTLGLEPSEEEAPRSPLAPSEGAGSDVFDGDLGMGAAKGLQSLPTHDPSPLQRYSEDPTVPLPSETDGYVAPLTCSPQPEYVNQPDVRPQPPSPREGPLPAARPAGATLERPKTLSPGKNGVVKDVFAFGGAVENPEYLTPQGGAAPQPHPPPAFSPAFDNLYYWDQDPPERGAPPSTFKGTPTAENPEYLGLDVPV

As to `COc1ccc(CCN2CCC(Nc3nc4ccccc4n3Cc3ccc(F)cc3)CC2)cc1` [ASTEMIZOLE], the IC50 entry (in [1]; at Adenosine receptor A1; in [2]; in assay [5]; in assay [6]; in assay [7]) was “Not Active” each time. Also, the pIC50 (usually the IC50 on a negative log10 scale, so that one unit is a factor of ten) in assay [3] was 4.88; in assay [4], 5.55.
Take `Clc1ccccc1C(c1ccccc1)(c1ccccc1)n1ccnc1` [CLOTRIMAZOLE]: the IC50 entry in [1], in assay [2], in assay [5], in assay [6] and in [7] was “Not Active” each time. Also, the negative-log IC50 (pIC50) was 5.30 in [8] (read-out: IC50), 4.18 in assay [3], 4.50 in [4] and 4.90 in [9] (read-out: IC50). Further, the pKi (usually the Ki on a negative log10 scale, so that one unit is a factor of ten) in assay [8] (read-out: Ki) was 5.76; in assay [9] (read-out: Ki) it was 5.23.
`O=C(CCCN1CCC(O)(c2ccc(Cl)cc2)CC1)c1ccc(F)cc1` [HALOPERIDOL]: the IC50 entry (in [1]; in assay [8] (hek293); against Adenosine receptor A1; in [2]; in assay [3] (insect cells); in assay [4] (insect cells)) was “Not Active” in each case. Besides, the IC50 entry in assay [5], in assay [9] (hela), in [6] and in assay [7] was “Not Active” each time.
As to `NNc1ccccc1` [PHENYLHYDRAZINE], the IC50 entry (in [1]; in assay [10]; in assay [8] (hek293); at Adenosine receptor A1; in assay [2]; in [3] (insect cells)) was “Not Active” throughout. In addition, the IC50 result in assay [4] (insect cells), in [5], in [9] (hela), in [6] and in [7] was “Not Active” in each case. Besides, the Ki result in [10] is reported as “Not Active”.
Regarding `O=[N+]([O-])c1cc([As](=O)(O)O)ccc1O` [ROXARSONE], the IC50 entry (in [1]; in assay [10]; in assay [8] (hek293); on Adenosine receptor A1; in assay [2]; in assay [3] (insect cells)) was “Not Active” throughout. Also, the IC50 entry in assay [4] (insect cells), in assay [5], in [9] (hela), in assay [6] and in assay [7] was “Not Active” each time. In addition, the Ki entry (in assay [1]; in assay [10]; in assay [8] (hek293); on Adenosine receptor A1; in assay [2]; in [3] (insect cells)) was “Not Active” each time. Besides, the Ki result in assay [4] (insect cells), in assay [5], in assay [9] (hela), in assay [6] and in assay [7] was “Not Active” in each case.
For `COc1cccc(C2(O)CCCCC2CN(C)C)c1` (stereo not drawn) [TRAMADOL], the IC50 result (in [1]; in assay [8] (hek293); against Adenosine receptor A1; in assay [2]; in [3] (insect cells); in [4] (insect cells)) was “Not Active” in each case. Moreover, the IC50 result in assay [5], in assay [9] (hela), in assay [6] and in [7] was “Not Active” in each case.
